Assays:
[1] = biological target: T1, human leukocytic elastase (HLE) (Homo sapiens, UniProt P08246); assay: Anti-elastase test: hydrolysis of N-methoxysuccinyl-alanine-proline-valine-para-nitroanilide, spectrophotometry at 410 nm; assay type: biochemical
T1 sequence (P08246 30-267): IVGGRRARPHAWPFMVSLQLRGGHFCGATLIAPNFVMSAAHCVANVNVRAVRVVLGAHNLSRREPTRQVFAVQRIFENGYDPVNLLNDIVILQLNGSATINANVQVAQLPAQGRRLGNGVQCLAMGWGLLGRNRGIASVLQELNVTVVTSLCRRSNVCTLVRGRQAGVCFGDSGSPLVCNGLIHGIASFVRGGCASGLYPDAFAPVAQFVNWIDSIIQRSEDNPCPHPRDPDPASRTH
Method: Such a substance can be, for example, N-methoxysuccinyl-alanine-proline-valine-para-nitroanilide, a normally colourless substance which releases, by hydrolysis with human leukocytic elastase, a coloured product, para-nitroaniline, whose appearance kinetics can be monitored by spectrophotometry at 410 nm.
The reaction is carried out in a spectrophotometer thermostatically set at 25° C. and equipped with a sample changer. All of the kinetics are carried out a minimum of three times, the average and the standard deviation then being calculated for the three values obtained.
The presence of a molecule with anti-elastase activity is reflected by a limitation of the appearance of the coloured product and the anti-elastase effect can then be calculated relative to a control curve obtained in the absence or the said molecule.
A correlation thus exists between the percentage of inhibition of the appearance of the coloured product by the test compound and the percentage of inhibition of human leukocytic elastase.

lipase = assay: Anti-lipase test: titration of free fatty acids formed from triglycerides; assay type: biochemical
Method: The test involves assaying the free fatty acids obtained by degradation of the triglycerides with lipase. A known amount of triglycerides (“Lipase Substrate” sold by the company Sigma), a known amount of lipase (“Enzyme Control 2E” sold by the company Sigma) and the test composition are placed together in a tube. After an incubation period of three hours at 37° C., the enzymatic reaction is stopped and the free fatty acids formed are assayed by titration with 0.05 M sodium hydroxide. The results are expressed as a percentage of inhibition of the enzyme by the composition considered, by comparing it with a control test.

Propionibacterium acnes = assay: Minimum inhibitory concentration at pH 5 on growth of Propionibacterium acnes; assay type: cell-based; conditions: P. acnes, pH 5, product alone
Method: (§1) a) The minimum inhibitory concentration, at pH 5, of composition according to the invention on the growth of the strains below was determined:
(§2) b) The minimum inhibitory concentration, at pH 5, on the growth of the same strains for an octanoylglycine+zinc gluconate combination was determined.

Staphylococcus aureus = assay: Minimum inhibitory concentration at pH 5 on growth of Staphylococcus aureus; assay type: cell-based; conditions: Staph. Aureus, pH 5, product alone
Method: as §1, §2

Staphylococcus epidermis = assay: Minimum inhibitory concentration at pH 5 on growth of Staphylococcus epidermis; assay type: cell-based; conditions: Staph. Epidermis, pH 5, product alone
Method: as §1, §2

Row | Compound | % inhibition of elastase ([1]; 0.625% octanoylglycine alone) | inhibitory activity on elastase (in words) ([1]; at the concentrations tested) | percentage of inhibition of lipase (lipase; 1.6% octanoylglycine, 3 hours at 37° C.) | minimum inhibitory concentration (Propionibacterium acnes) | minimum inhibitory concentration (Staphylococcus aureus) | minimum inhibitory concentration (Staphylococcus epidermis) | percentage of inhibition of lipase (lipase; 0.13% solution of zinc gluconate, same operating conditions)
1 | CCCCCCCC(=O)NCC(=O)O [octanoylglycine] | 5% | no inhibitory activity | 44% | 0.5% | 0.25% | 0.20% | 
2 | zinc gluconate |  |  |  | 1% | 0.5% | 10.5% | 40%

— patent US20010002257A1, “Composition comprising a lipoamino acid and the constituents of a tannin-rich plant extract, and cosmetic use thereof” (priority 1997, published 2001)
